pEC50, pIC50: −log10 of the molar value.
Assays:
[1] = molecular target: T1, Human immunodeficiency virus type 1 reverse transcriptase (Human immunodeficiency virus 1, UniProt Q72547); assay: HIV-1 reverse transcriptase inhibitory activity against Wild Type Reverse transcriptase using (poly)rC600*(oligo)dGT as template primer.
[2] = molecular target: T1, Human immunodeficiency virus type 1 reverse transcriptase; assay: HIV-1 reverse transcriptase inhibitory activity against Asn103 mutant using (poly)rC600*(oligo)dGT as template primer.
[3] = molecular target: T1, Human immunodeficiency virus type 1 reverse transcriptase; assay: HIV-1 reverse transcriptase inhibitory activity against Cys181 mutant using (poly)rC600*(oligo)dGT as template primer.
[4] = molecular target: T1, Human immunodeficiency virus type 1 reverse transcriptase; assay: HIV-1 reverse transcriptase inhibitory activity against Ile 100 mutant using (poly)rC600*(oligo)dGT as template primer.
[5] = molecular target: Human immunodeficiency virus type 1 reverse transcriptase (Human immunodeficiency virus 1) (UniProt Q72547); conditions: MT4
Description: Inhibitory activity against HIV-1 Asn 103 mutant in MT-4 cells.

[6] = molecular target: Human immunodeficiency virus type 1 reverse transcriptase (Human immunodeficiency virus 1) (UniProt Q72547); conditions: MT4; remark: listed apart in the source
Description: Inhibitory activity against HIV-1 Cys 181 mutant in MT-4 cells.

[7] = molecular target: Human immunodeficiency virus type 1 reverse transcriptase (Human immunodeficiency virus 1) (UniProt Q72547); conditions: MT4; remark: listed apart in the source
Description: Inhibitory activity against HIV-1 Ile 100 mutant in MT-4 cells.

[8] = molecular target: Human immunodeficiency virus type 1 reverse transcriptase (Human immunodeficiency virus 1) (UniProt Q72547); conditions: MT4; remark: listed apart in the source
Description: Inhibition of wild type HIV-1 in MT-4 cell culture (human T cell line)

MT4 = assay: Inhibitory activity against HIV-1 Wild Type in MT-4 cell culture (human T-cell line with 50% human AB serum); type: functional; conditions: read-out: ED50 (the source's name)

Compound	pIC50 [1]	pIC50 [2]	pIC50 [3]	pIC50 [4]	ED50 [5]	ED50 [6]	ED50 [7]	ED50 [8]	pEC50 (MT4; Homo sapiens, MT4)	pEC50 (MT4)
CCOc1ccc(Cl)c(C2CC2NC(=O)Nc2cc(Cl)cnn2)c1F (stereo not drawn)	8.28	< 5.59	6.00	6.00	> 5000 nM	> 5000 nM	> 5000 nM	18 nM		
CCOc1ccc(F)c(C2CC2NC(=O)Nc2ccc(C#N)cn2)c1Cl (stereo not drawn)	8.37	6.74	6.89	6.70	> 5000 nM	270 nM	234 nM	8 nM		
CCC(=O)c1ccc(F)c(C2CC2NC(=O)Nc2ccc(Br)cn2)c1O (stereo in doubt; 17) [listing 1 of 2 here]					80 nM	69 nM	100 nM	8 nM		
CN(C)c1ccc(F)c(CCNC(=O)Nc2ccc(Br)cn2)c1F		< 5.60	5.82	< 5.60	> 20000 nM	> 20000 nM	> 20000 nM	500 nM		
CC(=O)c1ccc(F)c(C2CC2NC(=O)Nc2ccc(C#N)cn2)c1O (stereo not drawn)	8.28	7.01	7.80	7.89	104 nM	230 nM	40 nM	8 nM		
O=C1Nc2ccc(Cl)cc2[C@@](C#CC2CC2)(C(F)(F)F)O1 [EFAVIRENZ]									7.30	
CCC(=O)c1ccc(F)c(C2CC2NC(=O)Nc2ccc(Cl)cn2)c1O (stereo in doubt; 20) [listing 1 of 2 here]					470 nM	100 nM	75 nM	13 nM		
CC(C)Nc1cccnc1N1CCN(C(=O)c2cc3cc(NS(C)(=O)=O)ccc3[nH]2)CC1 [DELAVIRDINE]									6.49	
COc1ccc(OC)c(CCNC(=O)Nc2ccc(Cl)cn2)c1F		6.65	6.85	6.85	1130 nM	> 5000 nM	3800 nM	28 nM		
CCC(=O)c1ccc(F)c(C2CC2NC(=O)Nc2ccc(Br)cn2)c1O (stereo in doubt; 17) [listing 2 of 2 here]	8.42	7.08	7.80	6.77					7.24	
CCOc1ccc(Cl)c(C2CC2NC(=O)Nc2ccc(Cl)cn2)c1F (stereo not drawn)	8.89	6.63	7.68	7.28	780 nM	104 nM	139 nM	9 nM		
CCOc1ccc(Cl)c(C2CC2NC(=O)Nc2ccc(C#N)cn2)c1F (stereo not drawn)	8.57	6.72	7.70	7.57	400 nM	200 nM	53 nM	4 nM		
CCC(=O)c1ccc(F)c(C2CC2NC(=O)Nc2ccc(Cl)cn2)c1O (stereo in doubt; 19) [listing 1 of 2 here]					200 nM	100 nM	100 nM	9 nM		
CC(=O)c1ccc(F)c(C2CC2NC(=O)Nc2ccc(Br)cn2)c1O (stereo not drawn)	8.46	7.15	8.10	7.74	561 nM	113 nM	50 nM	21 nM		
CCC(=O)c1ccc(F)c(C2CC2NC(=O)Nc2ccc(Cl)cn2)c1O (stereo in doubt; 20) [listing 2 of 2 here]	8.57	7.11	8.40	7.85						7.10
Cc1ccnc2c1NC(=O)c1cccnc1N2C1CC1 [NEVIRAPINE]									< 5.30	
CCOc1ccc(F)c(CCNC(=O)Nc2ccc(Br)cn2)c1Cl		< 5.62	6.62	5.77	> 5000 nM	> 5000 nM	> 10000 nM	70 nM		
O=C(Nc1ccc(Cl)cn1)NC1CC1c1c(F)ccc(O)c1Cl (stereo not drawn)	6.87	< 5.57	5.37	5.39	> 5000 nM	> 5000 nM	> 5000 nM	110 nM		
COc1c(C(C)=O)ccc(F)c1CCNC(=O)Nc1ccc(Cl)cn1	6.65	< 5.57	4.90	4.58	> 5000 nM	> 5000 nM	> 5000 nM	819 nM		
CCC(=O)c1ccc(F)c(C2CC2NC(=O)Nc2ccc(C#N)cn2)c1O (stereo not drawn)	8.17	7.01	7.80	7.49	137 nM	46 nM	69 nM	3 nM		
CCC(=O)c1ccc(F)c(C2CC2NC(=O)Nc2ccc(Cl)cn2)c1O (stereo in doubt; 13) [listing 1 of 2 here]					350 nM	340 nM	220 nM	27 nM		
CCC(=O)c1ccc(F)c(C2CC2NC(=O)Nc2ccc(Br)cn2)c1O (stereo in doubt; 18) [listing 1 of 2 here]	8.32	7.39	8.00	7.85						7.25
CCC(=O)c1ccc(F)c(C2CC2NC(=O)Nc2ccc(Br)cn2)c1O (stereo in doubt; 18) [listing 2 of 2 here]					358 nM	95 nM	53 nM	12 nM		
COc1ccc2c(c1)N(C(=O)OC(C)C)C(CSC)C(S)=N2 (stereo not drawn)	8.10	7.25	8.05	8.05	500 nM	73 nM	72 nM	9 nM	6.49	
CCC(=O)c1ccc(F)c(C2CC2NC(=O)Nc2ccc(Cl)cn2)c1O (stereo in doubt; 19) [listing 2 of 2 here]	8.49	7.09	7.72	6.94					7.29	
CCOc1ccc(F)c(C2CC2NC(=O)Nc2ccc(Cl)cn2)c1F (stereo not drawn)	8.80	6.33	7.85	7.09	544 nM	163 nM	816 nM	31 nM		
COc1ccc(C(C)=O)c(F)c1CCNC(=O)Nc1ccc(Cl)cn1	6.96	< 5.57	5.00	4.95	3280 nM	> 20000 nM	> 20000 nM	273 nM		
CCC(=O)c1ccc(F)c(C2CC2NC(=O)Nc2ccc(Cl)cn2)c1O (stereo in doubt; 13) [listing 2 of 2 here]	8.05	7.24	7.29	7.12						
CCOc1ccc(F)c(C2CC2NC(=O)Nc2cc(Cl)cnn2)c1Cl (stereo not drawn)	7.80	< 5.59	6.59	6.85	> 5000 nM	2300 nM	4400 nM	78 nM		

Reference: ChEMBL document CHEMBL1132432, “Urea-PETT compounds as a new class of HIV-1 reverse transcriptase inhibitors. 3. Synthesis and further structure-activity relationship studies of PETT analogues” (J Med Chem, 1999)
